According to BigSolDB 2.1:

O=c1c(-c2ccc(O)cc2)coc2cc(O[C@@H]3O[C@H](CO)[C@@H](O)[C@H](O)[C@H]3O)cc(O)c12
solubility (mole fraction)
Conditions | 283.2 K | 293.2 K | 303.2 K | 313.2 K | 323.2 K
in THF | 8.67e-05 | 0.000101 | 0.000123 | 0.000149 | 0.000186
in acetone | 0.000354 | 0.000361 | 0.000369 | 0.000382 | 0.000388
in acetonitrile | 1.15e-06 | 1.61e-06 | 2.15e-06 | 2.62e-06 | 3.12e-06
in chloroform | 2.86e-07 | 3.37e-07 | 4.14e-07 | 5.02e-07 | 6.54e-07
in cyclohexane | 2.66e-07 | 4.59e-07 | 6.56e-07 | 9.11e-07 | 1.25e-06
in ethanol | 2.63e-05 | 2.85e-05 | 3.28e-05 | 3.72e-05 | 4.38e-05
in ethyl acetate | 1.17e-06 | 1.52e-06 | 1.99e-06 | 2.55e-06 | 3.25e-06
in isopropanol | 7.95e-06 | 1.05e-05 | 1.34e-05 | 1.71e-05 | 2.2e-05
in methanol | 5e-05 | 5.54e-05 | 5.91e-05 | 6.44e-05 | 7.04e-05
in n-butanol | 4.78e-06 | 8.48e-06 | 1.25e-05 | 1.56e-05 | 1.91e-05
in n-hexane | 3.64e-07 | 4.87e-07 | 6.47e-07 | 8.58e-07 | 1.14e-06
